melting point [°C] | SMILES
93 | CC1C(=O)N(c2ccccc2OCCCCBr)Sc2ccccc21 (stereo not given)
126 to 128 | CCCc1nc2cc(C(=O)c3ccccc3)ccc2n1Cc1ccc(C(=O)OCC)cc1
202 to 204 | COc1nc(-c2ccc(F)cc2)c(-c2ccc(S(C)(=O)=O)cc2)cc1C#N
192 | CCCCN1CC(=O)N2[C@@H](c3ccc(N)cc3)c3[nH]c4ccccc4c3C[C@@H]2C1=O (relative stereo)
199 to 200 | N#Cc1[nH]c2ccc(Cl)cc2c1-c1c(F)cccc1F
> 260 | CCOC(=O)c1c(SC)nc(C2CC2)n1Cc1ccc(-c2ccccc2S(=O)(=O)NC#N)cc1
54.5 to 56 | N#Cc1cccc(CN2CCc3ccccc32)c1
115 to 116 | CCCc1c(OCCCSc2ccc(C(=O)NCC(=O)OCC)cc2)ccc(C(C)=O)c1O
161 to 162 | CCOc1ccc(S(=O)(=O)Nc2cccnc2Nc2ccccc2)cc1
148 | CCCCOC(=O)c1ccc(C(C(N)=O)C(C)c2ccccc2N2CCCCC2)cc1 (stereo not given)
264 to 266 | CCOCc1nc2c(N)nc3cc(OCc4ccccc4)ccc3c2n1CC(C)(C)NS(C)(=O)=O
142 to 143 | O=C(NCCO)c1cccc(-c2ccc3c(n2)N(Cc2ccc(Cl)cc2Cl)CC3)c1
185 to 188 | NC(=O)c1cccc(CCN2CC=C(c3c[nH]c(-c4ccc(F)cc4)c3-c3ccncc3)CC2)c1
> 300 | Nc1n[nH]c2c1cnc1c(NC(=O)c3c(Cl)cccc3Cl)cccc12
158 to 160 | OC1CCCc2nc3ccccc3c(NCc3ccccc3C(F)(F)F)c21 (stereo not given)
95 to 98 | CN(Cc1ccccc1)c1cc(C#N)ccc1C1NC(=O)NC1=O (stereo not given)
283 to 285 | COC(=O)[C@H]1Cc2c(sc3ccccc23)[C@@H](c2cccc(O)c2)N1
115 to 116 | C=CCC(C(=O)OC)C1(C)CCCc2c1[nH]c1ccccc21 (stereo not given)
188 | Cc1cc(COc2ccc(C(=O)NC[C@@H](C(=O)NO)N3CCN(S(=O)(=O)C(C)C)CC3)cc2)c2ccccc2n1
135 to 137 | Cc1c(-c2ccc(F)cc2)c(-c2ccccc2)nn1C(C)C
222 | CC(=O)c1c2sc3ccccc3nc-2ccc1=O
104 to 105 | C#CCn1c(-c2cccnc2)c(C)c2ccccc21
> 300 | O=C1CC2CCc3cc(-n4ccc(=O)cc4)ccc3C2=NN1 (stereo not given)
237 to 238 | O=C(Nc1nccs1)c1nc(-c2cccc3ccccc23)[nH]c1-c1ccc([N+](=O)[O-])cc1
102 to 104 | O=C(NCCN1CCCCC1)Nc1ccc(-c2cnc(COCc3cc4ccccc4o3)o2)cc1

Further lines, the compound ahead of its results:

SMILES | melting point [°C]
CC(=S)NC[C@H]1CN(c2ccc(N3CCN(C(=O)CO)CC3)c(F)c2)C(=O)O1 | 163 to 165
CC(=O)OC1CSC(Oc2cncc(-c3ccc(C#N)c(C)c3)c2)C(OC(C)=O)C1OC(C)=O (stereo not given) | 74 to 80
Nc1nc(Cl)c(CCCl)c(Cl)n1 | 210 to 213
CC(Nn1cncn1)(c1ccc(F)cc1)c1ccc(F)cc1 | 114 to 119
Cc1c(O)ccc(S)c1C | 98 to 99
COc1cnn(-c2cc(Cl)cc(Cl)c2)c(=O)n1 | 164
CC(=O)Oc1ccc(C2=COc3ccccc3O2)cc1 | 123 to 125
COc1cccc(CC(=NO)c2ccccc2)c1 | 72 to 73
CN(C)C(=O)c1nc2n(n1)-c1ccc(Cl)cc1C(c1ccccc1F)=NC2 | 180 to 182
CC(C)c1n[nH]c2c(Cl)nc(Cl)nc12 | > 250
O=C1NCCCN1C1(CO)CCNCC1 | 162
Nc1nc(-c2cccnc2Cl)c(-c2cccnc2Cl)s1 | 273 to 274
C=CCS(=O)(=O)c1ncc(Cl)cn1 | 84
C[C@]12C[C@H](c3ccc(O)cc3)C3=C4CCC(=O)C=C4CC[C@H]3[C@@H]1CCC2=O | 220
CC(C)(C)OC(=O)NCCc1c[nH]c2ccc(CO)cc12 | 129 to 130
COC1CC(C)(C)C(OC(=O)c2ccccc2)C(OC(=O)c2ccccc2)C=C1C (stereo not given) | 78 to 80
c1csc(-c2cnc(-c3cccs3)o2)c1 | 64.5 to 66
CCN(CC)c1ccc(-n2cc(-c3ccc(C4=C(C#N)C(=C(C#N)C#N)OC4(C)C)cc3)nn2)cc1 | 265
Nc1cccn2nc(SCc3ccccc3)nc12 | 116 to 117
O=c1oc2ncccc2n1CCCBr | 62 to 63
COc1ccc(S(=O)(=O)N(C)C)cc1-c1ccc(CN2CCCCC2)[nH]1 | 78 to 79
COc1ccsc1C1OC(=O)NC1=O (stereo not given) | 156 to 158
O=[N+]([O-])c1c(Cl)cccc1NCC(O)CO (stereo not given) | 126
Cn1ccc(-c2[nH]nc3c2C(=O)c2c(NC(=O)NN4CCOCC4)cccc2-3)c1 | 301
CCc1cc(C(=O)O)ccc1N=C1SCC2(CCCC2)N1C1CCCC1 | 208 to 209

SMILES | melting point [°C]
CCSc1nc2c(C(=O)OCOC)sc(C)c2[nH]1 | 128 to 130
C#CCc1c(C)nc2c(OCc3ccccc3C)nccn12 | 123 to 124
CCCCCCc1cc2c(cc1CNCC(=O)O)C(=O)CC2 | 70
CCCCc1nc2c(N)nc(C)c(C)c2n1CCCCNS(=O)(=O)N(C)C | 130 to 131
CCOC(=S)c1c(C)nc2sccn12 | 133 to 135
N#Cc1ccc(Oc2ccc(CBr)cc2)cc1C#N | 101 to 102
Cc1c(C(=O)O)cccc1-n1c(C)ccc1C | 142 to 143
CCCCCCCCCCCCCCCCCCN1CC(O)C1 | 75.5 to 78
O=c1[nH]nc2c3cc(F)ccc3[nH]c(=O)n12 | > 350
CS(=O)(=O)c1nnc(-c2ccc3occ(-c4ccc(OC(F)(F)F)cc4)c3c2)o1 | 196 to 197
COC(=O)C(=O)c1cn2c3c(cccc13)C(OC(C)=O)CC2 (stereo not given) | 165 to 168
Cc1cc(C)nc(Oc2cccc(Oc3ncc(Cl)cn3)c2)n1 | 142
CN(C)C1CCN(c2cccc(-c3cnc4[nH]cc(C(=O)C(C)(C)C)c4n3)c2)C1 (stereo not given) | 204 to 206
C=CCSc1sc(-c2cc[nH]n2)c2c1C(=O)CC(C)(C)C2 | 164 to 167
COC(=O)c1cn(C(c2ccccc2)(c2ccccc2)c2ccccc2)c(I)n1 | 192 to 194
O=C(O)c1ccccc1C(=O)NCc1ccccn1 | 140 to 142
CCc1ccc2c(c1)cc(C(=O)O)n2CC(=O)OC | 181
CCOC(=O)CC(=O)Nc1ccc(Cl)c(Cl)c1 | 74 to 75
Cc1cc2nc3c4cc(O)ccc4n(CCN(C)C)c3nc2cc1C | > 260
CCCCCCCCCCCCCCCC(=O)Oc1ccc(C(O)CNCCc2ccc(OC)c(OC)c2)cc1 (stereo not given) | 79 to 81
C[Si](C)(C)c1sccc1NC=O | 74 to 76
COc1ccc(S(=O)(=O)N(Cc2cccnc2)c2c(C(=O)O)cnc3c2c(C)nn3-c2ccccc2)cc1 | 192 to 194
CC1(C)Oc2ccc(C(=O)CCC(=O)O)cc2NC1=O | 226 to 228
COC(=O)c1c[nH]c(Sc2ccccc2C)c1 | 114 to 119
CC(=O)N1CCC(c2cc(F)c(C(=O)O)cc2F)CC1 | 206 to 207
